Experimental data taken from US20240408119A1, “DELIVERY OF THERAPEUTIC ALKALOID COMPOUNDS” (priority 2022, published 2024).
Like-named read-outs stand apart in the source and are kept apart here.

Assays:
[1] = Metabolic Stability in Human Hepatocytes; format: in vitro ADME; details: cryopreserved human hepatocytes, 37° C.
Procedure: A 2.5 uL aliquot of 100 μM test compound was incubated with 247.5 uL of cryopreserved hepatocytes suspended in serum-free incubation medium at 5×10^5 viable cells/mL. The mixture was incubated at 37° C. and shaken at 500 rpm for the designated time points (0.5, 15, 30, 60, 90, or 120 min). At each time point, 25 μL aliquot of incubation mixture was transferred to 125 μL of cold acetonitrile containing internal standard, followed by centrifugation for 30 min at 3,220 g. 100 μL of supernatant was mixed with 100 μL of distilled water for analysis by LC-MS/MS. Peak areas were determined from extracted ion chromatograms and in vitro half-life (t1/2) was determined from the concentration vs time regression slope, in vitro t1/2=0.693/k. Conversion of the in vitro t1/2 (in min) into the in vitro intrinsic clearance (in vitro CLint, in μL/min/10^6 cells) is done using: in vitro CLint=kV/N.

[2] = Plasma Stability Assay (Example A3), rat plasma; format: in vitro ADME; details: prodrug remaining, 10 μM, 37° C.
Excerpt: (§1) The data is represented in the table below.

SERT = SERT (Homo sapiens (Human), UniProt P31645); experiment: SERT Inhibition Assay (Neurotransmitter Transporter Fluorescence assay, stable 5HTT cells); format: cell-based
Procedure: SERT inhibition was measured using a Neruotransmitter Transportation Fluorescence assay. Briefly, stable 5HTT cells were prepared in a 384 microwell plate. Compounds were prepared by in assay buffer (20 mM HEPES, 0.1% BSA). The compounds were added to the plated cells and incubated for 30 minutes at 37° C. 25 μL of dye solution (Molecular Devices Neurotransmitter Transporter Uptake Assay Kit) was added per well and incubated for 30 minutes at 37° C. The plates were then read on a plate reader.

[3] = Plasma Stability Assay (Example A3), human plasma; format: in vitro ADME; details: prodrug remaining, 10 μM, 37° C.
Excerpt: as §1

[4] = Hydrolysis Assay - Condition 2 (DI Water); format: physicochemical; details: 25° C., 0.5 mM
Procedure: 50 μL of compound (10 mM) in DMSO was diluted into 950 μL of DI water to a final concentration of 0.5 mM. The hydrolysis kinetics were conducted at 25° C. and measured by LCMS at a certain time interval.
(§2) The corresponding LCMS chromatogram were recorded and the conversions were calculated by integration of each peak.
(§3) • 1) LCMS spectra were obtained using Agilent 1200G1956A or SHIMADZU LCMS-2020. Standard LCMS conditions were as follows (running time 1.55 minutes): • Acidic condition: Mobile Phase A: 0.0375% TFA in water (v/v). Mobile Phase B: 0.01875% TFA in acetonitrile (v/v); Column: Kinetex EVO C18 30*2.1 mm, 5 μm. • Basic condition: Mobile Phase A: 0.025% NH3·H2O in water (v/v). Mobile Phase B: Acetonitrile; Column: Kinetex EVO C18 2.1×30 mm, 5 μm. • 2) Conversion (%)=peak area 1/(peak area 1+peak area 2)*100%, peak area 1 is the integration of hydrolyzed product, peak area 2 is the integration of starting material.

[5] = format: in vitro ADME, human; details: prodrug remaining, 5 μM, 37° C.
Procedure: Each test was carried out in duplicate for each time point; 0 min, 15 min, 30 min, 60 min, 120, 240 min. […]

[6] = Hydrolysis Assay - Condition 1 (SGF); format: physicochemical; details: SGF with pepsin pH 1.5, 37° C., 0.5 mM
Procedure: 50 μL of compound (10 mM) in DMSO was diluted into 950 μL of Simulated Gastric Fluid (SGF) with pepsin (pH 1.5) to a final concentration of 0.5 mM. The hydrolysis kinetics were conducted at 37° C. and measured by LCMS at a certain time interval.
as §2, §3

in vivo = format: in vivo, mouse; details: for half-life / C0 / clearance / Vd: iv, 2 mg/kg; for C0: back extrapolated; for clearance: flagged NR (not reportable, very high vs liver blood flow); for Vd: read-out: Vss
Procedure: Total fifteen male mice were used in this study with n=3 mice/time point with sparse sampling study design. Animals were administered through intravenous route with solution formulation of 323 at 2 mg/kg dose.
The extraction procedure for plasma/brain samples and the spiked plasma/brain calibration standards were identical (PMSF Stabilized Plasma and Brain used for Preparation of calibration standards): A 20 μL of study sample plasma/brain or spiked plasma/brain calibration standard was added to individual pre-labeled micro-centrifuge tubes followed by 200 μL of internal standard prepared in acetonitrile (Rosuvastatin+Cetrizine, 50 ng/mL) was added except for blank, where 200 μL of acetonitrile was added. Samples were vortexed for 5 minutes. Samples were centrifuged for 10 minutes at a speed of 4000 rpm at 4° C. Following centrifugation, 200 μL of clear supernatant was transferred in 96 well plates and analyzed using LC-MS/MS.
Brain samples were diluted (1-part of tissue: 2-part of buffer) and homogenized. The homogenate was submitted for bioanalysis and the concentrations (ng/mL) received were corrected with dilution factor (3×) and the final reported concentrations were represented in ng/g.
The plasma and brain concentration-time data of 323 and 001 were used for the pharmacokinetic analysis.
LLOQ: 323: 1.02 ng/mL for plasma and brain 001: 1.01 ng/mL for plasma and brain

[7] = male, C57BL/6, mouse, in vivo, 323 in brain after 323 IV 2 mg/kg
[8] = male, C57BL/6, mouse, in vivo, 323 in plasma after 323 IV 2 mg/kg
[9] = male, C57BL/6, mouse, in vivo, 323 after 323 IV 2 mg/kg, read-out: Brain concentrations (mean)
[10] = male, C57BL/6, mouse, in vivo, 323 after 323 IV 2 mg/kg, read-out: Plasma concentrations (mean)

## COc1ccc([C@@]23CCC(OP4(=O)OCC(C)(C)CO4)=C[C@@H]2N(C)CC3)cc1OC [Compound 323, 2-[[(3aS,7aS)-3a-(3,4-dimethoxyphenyl)-1-methyl-3,4,5,7a-tetrahydro-2H-indol-6-yl]oxy]-5,5-dimethyl-1,3,2λ^5-dioxaphosphinane 2-oxide]
[1]
  half-life at 1 μM: 327 min
  hepatocyte CLint at 1 μM: 4.2 µL/min/1e6 cells
[2]; 0 min
  Rat Plasma Prodrug (%): 100.00%
[2]; 10 min
  Rat Plasma Prodrug (%): >99%
[2]; 30 min
  Rat Plasma Prodrug (%): 95.5%
[2]; 60 min
  Rat Plasma Prodrug (%): 82.0%
[2]; 120 min
  Rat Plasma Prodrug (%): 58.8%
[2]; 240 min
  Rat Plasma Prodrug (%): 34.0%
SERT
  IC50: 62.7 nM
[3]; 0 min
  Human Plasma Prodrug (%): 100.00%
[3]; 10 min
  Human Plasma Prodrug (%): 86.9%
[3]; 30 min
  Human Plasma Prodrug (%): 70.8%
[3]; 60 min
  Human Plasma Prodrug (%): 52.7%
[3]; 120 min
  Human Plasma Prodrug (%): 27.0%
[3]; 240 min
  Human Plasma Prodrug (%): 9.3%
[4]; 1 min
  Condition 2 Conversion (%): 0%
[4]; 5 min
  Condition 2 Conversion (%): 0%
[4]; 30 min
  Condition 2 Conversion (%): 0%
[4]; 1 h
  Condition 2 Conversion (%): 0%
[4]; 4 h
  Condition 2 Conversion (%): 0%
[4]; 24 h
  Condition 2 Conversion (%): 0%
[5]; 0 min
  Human Plasma Prodrug (%): 100%
[5]; 15 min
  Human Plasma Prodrug (%): 76.6%
[5]; 30 min
  Human Plasma Prodrug (%): 64.5%
[5]; 60 min
  Human Plasma Prodrug (%): 38.1%
[5]; 120 min
  Human Plasma Prodrug (%): 12.8%
[5]; 240 min
  Human Plasma Prodrug (%): 1.60%
[6]; 1 min
  Condition 1 Conversion (%): 0%
[6]; 5 min
  Condition 1 Conversion (%): 0%
[6]; 30 min
  Condition 1 Conversion (%): 0%
[6]; 1 h
  Condition 1 Conversion (%): 0%
[6]; 4 h
  Condition 1 Conversion (%): 0%
[6]; 24 h
  Condition 1 Conversion (%): 0%
In vivo; 323 after 323 IV 2 mg/kg
  brain concentrations quantifiable up to: ≤ 0.5 h
  plasma concentrations quantifiable up to: up to 2 h
In vivo; 323 in brain after 323 IV 2 mg/kg
  AUClast: 6.56 ng·h/g
In vivo; [7]
  half-life: 10.8 min
  C0: 33.9 ng/mL
  clearance: 4350 mL/min/kg
  Vd: 61.7 L/kg
In vivo; [8]
  half-life: 10.2 min
  C0: 609 ng/mL
  clearance: 344 mL/min/kg
  Vd: 3.25 L/kg
  AUC(0-t): 96 ng·h/mL
In vivo; [9]
  concentration at 0.08 h: 22.1 ng/g
  concentration at 0.25 h: 8.97 ng/g
In vivo; [10]
  concentration at 0.08 h: 332 ng/mL
  concentration at 0.25 h: 91.6 ng/mL
  concentration at 0.5 h: 26.3 ng/mL
In vivo; male, C57BL/6, mouse, in vivo, 323 after 323 IV 2 mg/kg, average of two values, read-out: Brain concentrations (mean)
  concentration at 0.5 h: 4.43 ng/g
In vivo; male, C57BL/6, mouse, in vivo, 323 after 323 IV 2 mg/kg, 1 h, read-out: Plasma concentrations (mean)
  concentration at 1 h: 4.05 ng/mL
In vivo; male, C57BL/6, mouse, in vivo, 323 after 323 IV 2 mg/kg, 2 h, single value, excluded from data analysis, read-out: Plasma concentrations (mean)
  concentration at 2 h: 1.03 ng/mL
In vivo; male, C57BL/6, mouse, in vivo, 323 after 323 IV 2 mg/kg, read-out: Brain-Kp
  Kp: 0.07
